Reference: patent US10293026B2, “Agent for preventing or treating demyelinating disease” (Osaka University, priority 2014, dated 2019)

B1: FGF15: Recombinant FGF15 (Abcam), comparison FGF subtype (protein, UniProt O35622 26-218, looked up)
Fibroblast growth factor 15: RPLAQQSQSVSDEDPLFLYGWGKITRLQYLYSAGPYVSNCFLRIRSDGSVDCEEDQNERNLLEFRAVALKTIAIKDVSSVRYLCMSADGKIYGLIRYSEEDCTFREEMDCLGYNQYRSMKHHLHIIFIQAKPREQLQDQKPSNFIPVFHRSFFETGDQLRSKMFSLPLESDSMDPFRMVEDVDHLVKSPSFQK
B2: FGF23: Recombinant FGF23 (R&D), comparison FGF subtype (protein, UniProt Q9GZV9 25-251, looked up)
Fibroblast growth factor 23: YPNASPLLGSSWGGLIHLYTATARNSYHLQIHKNGHVDGAPHQTIYSALMIRSEDAGFVVITGVMSRRYLCMDFRGNIFGSHYFDPENCRFQHQTLENGYDVYHSPQYHFLVSLGRAKRAFLPGMNPPPYSQFLSRRNEIPLIHFNTPIPRRHTRSAEDDSERDPLNVLKPRARMTPAPASCSQELPSAEDNSPMASDPLGVVRGGRVNTHAGGTGPEGCRPFAKFI

What was measured:
[1] = system: oligodendrocyte precursor cells; test: BrdU uptake by oligodendrocyte precursor cells with culture supernatant of cardiomyocytes and FGFR inhibitors (Example 1); format: cell-based, C57BL/6j mice; conditions: SU5402 at 10, 30, 100 μM or PD173074 at 0.03, 0.1, 0.3, 1 μM added with supernatant; FIG. 1
Method: Hearts extracted from C57BL/6j mice (postnatal day 1-old) were minced, and then poured into 1 mg/ml of Type 1 collagenase (Worthington) and shaken at 37° C. for 20 minutes. The obtained cell suspension was pipetted and allowed to stand, and then the supernatant was collected. Remaining cardiomyocytes after the collection of the supernatant were again poured into 1 mg/ml of Type 1 collagenase (Worthington) and shaken at 37° C. for 20 minutes, and then the supernatant was collected. This operation was repeated three times. The collected supernatant was suspended in MEM ([…]) containing 5% calf serum, and the cell suspension was poured into a culture dish. After 30 minutes, suspension cells were collected, and were resuspended in MEM containing 5% calf serum and then centrifuged (2000 rpm, 6 minutes). […]
The harvested oligodendrocyte precursor cells were seeded in a poly-L-lysine (Sigma)-coated plastic tissue culture dish, and cultured in a medium for 1 day (37° C., 5% CO2). […] Bromodeoxyuridine (BrdU) was subsequently added and cultured at 37° C. for 24 hours, and then the cells were collected; the BrdU uptake was then detected using the cell proliferation ELISA, BrdU colorimetric kit (Roche). As a control, the BrdU uptake was measured under the same conditions as those described above, except that the culture supernatant of cardiomyocytes was not added. […]

[2] = system: oligodendrocyte precursor cells; test: BrdU uptake by oligodendrocyte precursor cells with recombinant FGFs (Example 3); format: cell-based, C57BL/6j mice; conditions: FGF at 10, 30 or 100 ng/ml, vs saline control; FIG. 3
Method: Recombinant FGF15 (Abcam), FGF21 (R&D), or FGF23 (R&D) was diluted in saline solution immediately before use to prepare an each FGF-containing solution. Oligodendrocyte precursor cells were harvested from C57BL/6j mice (postnatal day 1-old) brains, as in Example 1.
Initially, the oligodendrocyte precursor cells were seeded in a poly-L-lysinde (Sigma)-coated plastic tissue culture dish, and cultured in the following medium for 1 day (37° C., 5% CO2). The medium used was DMEM containing 4 mM L-gludamine (Sigma), 1 mM sodium pyruvate (Sigma), 0.1% bovine serum albumin (Sigma), 50 μg/ml apo-Transferrin (Sigma), 5 μg/ml insulin (Sigma), 30 nM sodium selenite (Sigma), 10 nM biotin (Sigma), 10 nM hydrocortisone (Sigma), 10 ng/ml Platelet-Derived Growth Factor-AA (Peprotech), and 10 ng/ml basic fibroblast growth factor (Peprotech). Thereafter, each type of FGF-containing solution was added to the culture medium of oligodendrocyte precursor cells such that the concentration of each type of FGF was 10 ng/ml, 30 ng/ml, or 100 ng/ml, and the cells were cultured at 37° C. for 24 hours. BrdU was subsequently added and cultured at 37° C. for 24 hours, and then the cells were collected; the BrdU uptake was then detected using the cell proliferation ELISA, BrdU colorimetric kit (Roche). As a control, an equivalent amount of saline solution was used instead of the FGF21-containing solution, and the BrdU uptake was measured under the same conditions as those described above. This experiment studied three cases for each group.

Molecule	increase in the BrdU uptake by culture supernatant of cardiomyocytes [1]	BrdU uptake by the oligodendrocyte precursor cells [2]
CCN(CC)CCCCNc1ncc2cc(-c3cc(OC)cc(OC)c3)c(NC(=O)NC(C)(C)C)nc2n1 [PD173074]	suppressed	–
Cc1c[nH]c(/C=C2\C(=O)Nc3ccccc32)c1CCC(=O)O [SU5402]	suppressed	–
B1	–	significant difference in the amounts of BrdU uptake was not observed
B2	–	significant difference in the amounts of BrdU uptake was not observed
